Reference: patent publication US20240190868A1, “SOS1 INHIBITORS” (Acerand Therapeutics (USA) Limited, priority 2022, published 2024)

Test system: cellular pERK in NCI-H1975 cells (EGFR/L858R-T790M)
Test: pERK potency assay (In Cell ELISA)
Format: cell-based
Conditions: Homo sapiens, 1 h compound incubation
Source text: The assay measures the ability of a compound to inhibit SOS1 function in cells. SOS1 activates RAS proteins by catalyzing the conversion of RAS GDP to RAS GTP in response to receptor tyrosine kinase activation. Activation of RAS induces a sequence of cellular signaling events that result in increased phosphorylation of ERK at Threonine 202 and Tyrosine 204 (pERK). The procedure (i.e., In Cell ELISA as described below) measures the level of cellular pERK in response to a test compound in NCI-H1975 cells (EGFR/L858R-T790M).
First, NCI-H1975 cells were grown and maintained using media and procedures recommended by the ATCC. A day before compound addition, cells were plated in poly-D-lysine coated 96-well cell culture plates (Corning® BioCoat® Cat #356640) at 25000 cells/well/100 μL and grown overnight in an incubator at 37° C. with 5% CO2. A solution of a test compound was prepared with 3-fold serial dilutions in DMSO having a top concentration of 6 mM. On the day of the assay, 50 μL of a test compound dilution in media was added to each well of cell culture plate with a final compound concentration in the range of 0.001 μM to 20 μM. After addition of the compound, cells were incubated for 1 h at 37° C. with 5% CO2, after which the culture medium was removed. Cells were fixed with 4% formaldehyde in phosphate-buffered saline (PBS) and incubated at RT for 20 min. The plate was washed three times with PBST (PBS with 0.05% Tween®-20), followed by incubation with 100 μL of pre-cooled methanol at −20° C. for 20 min. After incubation, methanol was removed. The plate was again washed with PBST. Cells were then permeabilized with 100 μL/well of 0.1% Triton X-100 in PBS at RT for 20 min and then quenched with a quenching buffer (PBST containing 1% H2O2 and 0.1% sodium azide) for 20 min at RT with gentle shaking. After washing once with PBST, a blocking buffer (250 uL/well, Pierce™ Protein-Free-PBS Blocking Buffer, Cat #37572) was then added to the cells for 1-h incubation at RT, followed by an anti-pERK antibody (cell signaling, 1:1000 dilution in 5% BSA in PBST) incubation overnight at 4° C. and a secondary antibody-HRP (Jackson immunoresearch, 1:3000 dilution in 5% BSA in PBST) incubation at RT for 1 h. PBST wash was carried out after each step three times. Before the addition of a substrate (Advansta ELISABright™), the plate was washed with PBS twice to remove detergent residues. The Cellular pERK level was determined using the microplate reader (Biotek Synergy™ H1) to detect the chemiluminescence signal. IC50 was determined by fitting a 4-parameter sigmoidal concentration-response model.

IC50 [nM] | SMILES
< 100 | Cc1c([C@@H](C)/N=c2\nc(C)n(C(C)C)c3cnc(N4CCOCC4)cc23)cccc1C(F)(F)F [Compound 78]
< 100 | Cc1c([C@@H](C)/N=c2\nc(C)n(C3CC3)c3cnc(N4CCOCC4)cc23)cccc1C(F)(F)F [Compound 79]
< 100 | Cc1c([C@@H](C)/N=c2\nc(C)n(C)c3cnc(N4CCn5c(C(F)F)cnc5C4)cc23)cccc1C(F)(F)F [Compound 80, (R,Z)-6-(3-(difluoromethyl)-5,6-dihydroimidazo[1,2-a]pyrazin-7(8H)-yl)-1,2-dimethyl-N-(1-(2-methyl-3-(trifluoromethyl)phenyl)ethyl)pyrido[3,4-d]pyrimidin-4(1H)-imine]
< 100 | CC(=O)N1CCC(O)(c2cc3/c(=N/[C@H](C)c4cccc(C(F)(F)F)c4C)ncn(C)c3c(=O)n2C)CC1 [Compound 81, (R,Z)-6-(1-acetyl-4-hydroxypiperidin-4-yl)-1,7-dimethyl-4-((1-(2-methyl-3-(trifluoromethyl)phenyl)ethyl)imino)-1,7-dihydropyrido[3,4-d]pyrimidin-8(4H)-one]
< 100 | CC(=O)N1CC=C(c2cc3/c(=N/[C@H](C)c4cccc(C(F)(F)F)c4C)ncn(C)c3c(=O)n2C)CC1 [Compound 82, (R,Z)-6-(1-acetyl-1,2,3,6-tetrahydropyridin-4-yl)-1,7-dimethyl-4-((1-(2-methyl-3-(trifluoromethyl)phenyl)ethyl)imino)-1,7-dihydropyrido[3,4-d]pyrimidin-8(4H)-one]
< 100 | COc1cc2c(cc1O[C@H]1CCOC1)/c(=N/[C@H](C)c1cccc(C(F)(F)F)c1C)nc(C)n2C [Compound 84, (Z)-7-methoxy-1,2-dimethyl-N—((R)-1-(2-methyl-3-(trifluoromethyl)phenyl)ethyl)-6-(((S)-tetrahydrofuran-3-yl)oxy)quinazolin-4(1H)-imine]
< 100 | CC(=O)NCC#Cc1cc2/c(=N/[C@H](C)c3cccc(C(F)F)c3F)nc(C)n(C)c2cn1 [Compound 85, (R,Z)—N-(3-(4-((1-(3-(difluoromethyl)-2-fluorophenyl)ethyl)imino)-1,2-dimethyl-1,4-dihydropyrido[3,4-d]pyrimidin-6-yl)prop-2-yn-1-yl)acetamide]
< 100 | CC(=O)N1CCN(C(=O)c2cc3/c(=N/[C@H](C)c4cccc(C(F)F)c4F)nc(C)n(C)c3cn2)CC1 [Compound 89, (R,Z)-1-(4-(4-((1-(3-(difluoromethyl)-2-fluorophenyl)ethyl)imino)-1,2-dimethyl-1,4-dihydropyrido[3,4-d]pyrimidine-6-carbonyl)piperazin-1-yl)ethan-1-one]
< 100 | CC(=O)N1CCN2c3cc4/c(=N/[C@H](C)c5cccc(C(F)F)c5F)ncn(C)c4cc3OC[C@H]2C1 [Compound 92, 1-((R,Z)-11-(((R)-1-(3-(difluoromethyl)-2-fluorophenyl)ethyl)imino)-8-methyl-1,2,4a,5,8,11-hexahydropyrazino[1′,2′:4,5][1,4]oxazino[3,2-g]quinazolin-3(4H)-yl)ethan-1-one]
< 100 | Cc1n/c(=N\[C@H](C)c2cccc(C(F)F)c2F)c2cc(C3(C(F)F)CC3)ncc2n1C [Compound 94, (R,Z)—N-(1-(3-(difluoromethyl)-2-fluorophenyl)ethyl)-6-(1-(difluoromethyl)cyclopropyl)-1,2-dimethylpyrido[3,4-d]pyrimidin-4(1H)-imine]
< 100 | Cc1n/c(=N\[C@H](C)c2cccc(C(F)F)c2F)c2cc(C3=CCN(S(C)(=O)=O)CC3)ncc2n1C [Compound 97, (R,Z)—N-(1-(3-(difluoromethyl)-2-fluorophenyl)ethyl)-1,2-dimethyl-6-(1-(methylsulfonyl)-1,2,3,6-tetrahydropyridin-4-yl)pyrido[3,4-d]pyrimidin-4(1H)-imine]
< 100 | CC(=O)NC/C=C/c1cc2/c(=N/[C@H](C)c3cccc(C(F)F)c3F)nc(C)n(C)c2cn1 [Compound 98, N-((E)-3-((Z)-4-(((R)-1-(3-(difluoromethyl)-2-fluorophenyl)ethyl)imino)-1,2-dimethyl-1,4-dihydropyrido[3,4-d]pyrimidin-6-yl)allyl)acetamide]
